Data taken from ChEMBL document CHEMBL4393689, “Discovery of fluorescent coumarin-benzo[b]thiophene 1, 1-dioxide conjugates as mitochondria-targeting antitumor STAT3 inhibitors” (Eur J Med Chem, 2019).
pIC50: −log10 of the molar value. Active and inactive are the calls of the source. The rule behind the calls is not given here.

How the values were obtained:
MCF7 = assay: Antiproliferative activity against human MCF7 cells assessed as reduction in cell viability incubated for 48 hrs by MTT assay; assay type: functional, cell-based; conditions: MCF7, 48 h
HepG2 = assay: Antiproliferative activity against human HepG2 cells assessed as reduction in cell viability incubated for 48 hrs by MTT assay; assay type: functional, cell-based; conditions: HepG2, 48 h
MDA-MB-231 [1] = assay: Antiproliferative activity against human MDA-MB-231 cells assessed as reduction in cell viability incubated for 48 hrs by MTT assay; assay type: functional, cell-based; conditions: MDA-MB-231, 48 h
HCT-116 = assay: Antiproliferative activity against human HCT116 cells assessed as reduction in cell viability incubated for 48 hrs by MTT assay; assay type: functional, cell-based; conditions: HCT-116, 48 h
[2] = biological target: Signal transducer and activator of transcription 3 (Homo sapiens) (UniProt P40763); assay: Inhibition of STAT3 in human MDA-MB-231 cells assessed as decrease in STAT3 phosphorylation at Tyr705 residue at 4 uM incubated for 24 hrs by Western blot analysis; assay type: cell-based
Sequence of Signal transducer and activator of transcription 3 (Homo sapiens) (P40763 whole entry): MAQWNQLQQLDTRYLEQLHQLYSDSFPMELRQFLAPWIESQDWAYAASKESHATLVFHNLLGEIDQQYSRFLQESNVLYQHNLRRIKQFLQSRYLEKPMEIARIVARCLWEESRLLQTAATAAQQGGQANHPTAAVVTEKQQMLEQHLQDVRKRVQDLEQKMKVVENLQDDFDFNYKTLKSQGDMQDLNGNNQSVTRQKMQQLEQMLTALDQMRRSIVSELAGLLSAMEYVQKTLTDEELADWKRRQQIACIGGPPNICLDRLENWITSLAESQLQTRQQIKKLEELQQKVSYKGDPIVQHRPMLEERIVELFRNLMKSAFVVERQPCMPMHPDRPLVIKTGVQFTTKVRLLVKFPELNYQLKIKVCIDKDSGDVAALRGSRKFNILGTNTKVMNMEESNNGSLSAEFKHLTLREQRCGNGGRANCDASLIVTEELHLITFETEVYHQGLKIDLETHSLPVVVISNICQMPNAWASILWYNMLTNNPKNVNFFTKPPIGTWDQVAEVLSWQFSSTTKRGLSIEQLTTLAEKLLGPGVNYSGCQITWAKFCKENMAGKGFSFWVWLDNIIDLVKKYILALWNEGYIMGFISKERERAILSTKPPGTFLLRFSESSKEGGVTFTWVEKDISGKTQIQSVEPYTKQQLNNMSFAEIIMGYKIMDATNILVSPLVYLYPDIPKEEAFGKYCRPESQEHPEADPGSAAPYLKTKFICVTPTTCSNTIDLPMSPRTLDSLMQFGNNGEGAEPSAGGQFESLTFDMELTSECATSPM

[3] = biological target: Mitogen-activated protein kinase; ERK1/ERK2 (Homo sapiens) (UniProt P27361+P28482); assay: Inhibition of ERK 1/2 in human MDA-MB-231 cells assessed as reduction in ERK 1/2 phosphorylation at 4 uM incubated for 24 hrs by Western blot analysis; assay type: cell-based
Sequence of Mitogen-activated protein kinase; ERK1/ERK2 (Homo sapiens) (P27361 whole entry, looked up): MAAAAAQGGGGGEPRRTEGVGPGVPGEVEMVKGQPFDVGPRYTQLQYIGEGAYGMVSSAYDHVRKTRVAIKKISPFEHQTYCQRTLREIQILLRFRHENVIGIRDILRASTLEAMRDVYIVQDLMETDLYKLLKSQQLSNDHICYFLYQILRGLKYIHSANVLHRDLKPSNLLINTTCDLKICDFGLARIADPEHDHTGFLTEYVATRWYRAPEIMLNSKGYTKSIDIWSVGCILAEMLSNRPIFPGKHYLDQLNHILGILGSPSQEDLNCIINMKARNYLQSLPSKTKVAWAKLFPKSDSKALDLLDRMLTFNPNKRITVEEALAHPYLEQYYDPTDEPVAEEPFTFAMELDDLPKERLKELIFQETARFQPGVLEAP
Sequence of Mitogen-activated protein kinase; ERK1/ERK2 (Homo sapiens) (P28482 whole entry, looked up): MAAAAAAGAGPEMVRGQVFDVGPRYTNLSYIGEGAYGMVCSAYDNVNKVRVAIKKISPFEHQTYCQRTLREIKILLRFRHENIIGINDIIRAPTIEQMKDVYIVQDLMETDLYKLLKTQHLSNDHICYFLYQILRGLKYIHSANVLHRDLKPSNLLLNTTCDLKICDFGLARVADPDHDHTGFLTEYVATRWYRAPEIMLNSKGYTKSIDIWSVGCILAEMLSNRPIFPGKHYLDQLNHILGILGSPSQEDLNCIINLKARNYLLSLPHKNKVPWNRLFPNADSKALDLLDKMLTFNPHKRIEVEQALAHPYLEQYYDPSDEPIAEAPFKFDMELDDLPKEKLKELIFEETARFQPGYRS

L02 = assay: Cytotoxicity against human LO2 cells assessed as reduction in cell viability incubated for 48 hrs by MTT assay; assay type: cell-based; conditions: L02, 48 h
[4] = biological target: Signal transducer and activator of transcription 3 (Homo sapiens) (UniProt P40763); assay: Inhibition of STAT3 in human MDA-MB-231 cells assessed as decrease in STAT3-DNA binding at 4 uM incubated for 24 hrs by electrophoretic mobility shift assay; assay type: cell-based
MDA-MB-231 [5] = assay: Induction of apoptosis in human MDA-MB-231 cells assessed as increase in cleaved caspase-3 levels at 4 uM incubated for 24 hrs by Western blot analysis; assay type: functional, cell-based
MDA-MB-231 [6] = assay: Induction of apoptosis in human MDA-MB-231 cells assessed as increase in cleaved PARP levels at 4 uM incubated for 24 hrs by Western blot analysis; assay type: functional, cell-based
[7] = Selectivity index, ratio of IC50 for human MCF10A cells to IC50 for human MDA-MB-231 cells; assay type: toxicity; conditions: MCF10A cells versus MDA-MB-231 cells, read-out: Ratio IC50
[8] = biological target: T1, Signal transducer and activator of transcription 1-alpha/beta (Homo sapiens) (UniProt P42224); assay: Inhibition of STAT1 in human MDA-MB-231 cells assessed as decrease in STAT1 phosphorylation at Y701 residue at 4 uM incubated for 24 hrs by Western blot analysis; assay type: cell-based
T1 sequence (whole entry): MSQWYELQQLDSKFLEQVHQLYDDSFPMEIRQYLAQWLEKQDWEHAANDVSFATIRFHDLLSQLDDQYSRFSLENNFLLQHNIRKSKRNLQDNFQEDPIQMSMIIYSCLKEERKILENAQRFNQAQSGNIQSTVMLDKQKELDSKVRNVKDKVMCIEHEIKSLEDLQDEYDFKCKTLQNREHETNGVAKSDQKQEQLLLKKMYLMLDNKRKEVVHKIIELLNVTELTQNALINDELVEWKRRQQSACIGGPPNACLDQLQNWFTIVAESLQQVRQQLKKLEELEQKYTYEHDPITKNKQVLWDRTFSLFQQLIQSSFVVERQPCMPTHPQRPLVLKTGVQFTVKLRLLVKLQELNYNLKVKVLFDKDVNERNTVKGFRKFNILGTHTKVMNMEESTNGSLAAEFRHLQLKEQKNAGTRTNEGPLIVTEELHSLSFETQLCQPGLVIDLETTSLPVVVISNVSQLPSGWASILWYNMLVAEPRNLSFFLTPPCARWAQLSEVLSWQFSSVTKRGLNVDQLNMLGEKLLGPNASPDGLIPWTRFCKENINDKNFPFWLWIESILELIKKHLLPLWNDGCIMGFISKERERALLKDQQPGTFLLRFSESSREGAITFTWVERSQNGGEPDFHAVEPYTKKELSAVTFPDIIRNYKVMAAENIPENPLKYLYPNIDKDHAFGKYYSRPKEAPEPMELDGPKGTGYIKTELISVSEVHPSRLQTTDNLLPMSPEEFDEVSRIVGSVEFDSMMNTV

[9] = Selectivity index, ratio of IC50 for human L02 cells to IC50 for human HepG2 cells; assay type: toxicity; conditions: L02 cells versus HepG2 cells, read-out: Ratio IC50
[10] = biological target: Tyrosine-protein kinase JAK2 (Homo sapiens) (UniProt O60674); assay: Inhibition of JAK2 in human MDA-MB-231 cells assessed as reduction in JAK2 phosphorylation at 4 uM incubated for 24 hrs by Western blot analysis; assay type: cell-based
Sequence of Tyrosine-protein kinase JAK2 (Homo sapiens) (O60674 whole entry): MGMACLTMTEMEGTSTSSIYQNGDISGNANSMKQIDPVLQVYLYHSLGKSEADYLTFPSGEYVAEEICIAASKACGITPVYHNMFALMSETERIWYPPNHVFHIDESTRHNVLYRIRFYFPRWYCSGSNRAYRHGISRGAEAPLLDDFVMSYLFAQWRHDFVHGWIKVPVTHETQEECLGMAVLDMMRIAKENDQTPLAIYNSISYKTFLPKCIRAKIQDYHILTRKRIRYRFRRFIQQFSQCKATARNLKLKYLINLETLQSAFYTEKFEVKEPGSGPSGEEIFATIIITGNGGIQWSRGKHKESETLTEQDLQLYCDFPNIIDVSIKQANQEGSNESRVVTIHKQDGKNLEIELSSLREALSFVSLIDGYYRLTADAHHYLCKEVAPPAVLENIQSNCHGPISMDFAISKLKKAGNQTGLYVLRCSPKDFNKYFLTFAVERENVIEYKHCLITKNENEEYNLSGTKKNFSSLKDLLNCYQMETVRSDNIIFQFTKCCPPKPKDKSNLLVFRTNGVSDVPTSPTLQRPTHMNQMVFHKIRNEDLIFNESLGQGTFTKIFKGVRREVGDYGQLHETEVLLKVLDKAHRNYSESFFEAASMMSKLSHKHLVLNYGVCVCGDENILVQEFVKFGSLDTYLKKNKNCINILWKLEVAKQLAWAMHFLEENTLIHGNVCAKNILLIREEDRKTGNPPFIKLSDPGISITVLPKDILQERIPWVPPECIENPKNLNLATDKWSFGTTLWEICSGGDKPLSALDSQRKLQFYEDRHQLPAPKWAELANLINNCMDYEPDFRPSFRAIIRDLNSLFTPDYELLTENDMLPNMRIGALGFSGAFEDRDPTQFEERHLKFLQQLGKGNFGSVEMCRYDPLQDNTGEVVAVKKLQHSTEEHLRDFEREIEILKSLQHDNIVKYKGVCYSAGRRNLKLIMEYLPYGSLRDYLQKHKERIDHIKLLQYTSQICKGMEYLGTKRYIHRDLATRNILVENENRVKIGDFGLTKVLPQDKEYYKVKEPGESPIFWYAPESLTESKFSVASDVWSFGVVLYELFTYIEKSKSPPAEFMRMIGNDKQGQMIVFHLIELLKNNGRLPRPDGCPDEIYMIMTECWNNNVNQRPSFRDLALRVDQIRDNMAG

MCF-10A = assay: Cytotoxicity against human MCF10A cells assessed as reduction in cell viability incubated for 48 hrs by MTT assay; assay type: cell-based
MDA-MB-231 [11] = assay: Induction of apoptosis in human MDA-MB-231 cells assessed as increase in cleaved caspase-9 levels at 4 uM incubated for 24 hrs by Western blot analysis; assay type: functional, cell-based
[12] = biological target: Proto-oncogene tyrosine-protein kinase Src (Homo sapiens) (UniProt P12931); assay: Inhibition of Src in human MDA-MB-231 cells assessed as reduction in Src phosphorylation at 4 uM incubated for 24 hrs by Western blot analysis; assay type: cell-based
Sequence of Proto-oncogene tyrosine-protein kinase Src (Homo sapiens) (P12931 2-536 limits assumed): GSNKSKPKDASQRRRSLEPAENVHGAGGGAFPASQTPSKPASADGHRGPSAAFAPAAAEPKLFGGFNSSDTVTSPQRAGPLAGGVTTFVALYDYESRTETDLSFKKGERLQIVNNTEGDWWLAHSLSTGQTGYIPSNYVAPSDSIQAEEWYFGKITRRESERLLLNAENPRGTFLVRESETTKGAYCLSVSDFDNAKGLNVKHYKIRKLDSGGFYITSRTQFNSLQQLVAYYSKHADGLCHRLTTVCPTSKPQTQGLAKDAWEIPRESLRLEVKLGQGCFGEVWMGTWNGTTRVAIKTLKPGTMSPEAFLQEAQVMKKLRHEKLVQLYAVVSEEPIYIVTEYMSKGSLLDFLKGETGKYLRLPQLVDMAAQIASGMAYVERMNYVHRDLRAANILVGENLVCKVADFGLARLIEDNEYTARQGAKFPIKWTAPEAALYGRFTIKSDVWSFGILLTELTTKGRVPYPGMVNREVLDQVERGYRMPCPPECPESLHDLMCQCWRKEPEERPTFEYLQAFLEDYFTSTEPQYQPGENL

| pIC50 (MCF7) | pIC50 (HepG2) | pIC50 (MDA-MB-231 [1]) | pIC50 (HCT-116) | Compound | further results |
| --- | --- | --- | --- | --- | --- |
| 5.20 | 5.13 | 5.31 | 5.17 | CCN(CC)c1ccc2cc(C(=O)N3CCN(C(=O)C4=Cc5cc([N+](=O)[O-])ccc5S4(=O)=O)CC3)c(=O)oc2c1 |  |
| 5.30 | 5.26 | 5.56 | 5.55 | CCN(CC)c1ccc2cc(C(=O)N3CCN(C(=O)C4=Cc5ccc(Br)cc5S4(=O)=O)CC3)c(=O)oc2c1 |  |
| 5.49 | 5.32 | 5.63 | 5.53 | CCN(CC)c1ccc2cc(C(=O)N3CCN(C(=O)C4=Cc5cccc(Br)c5S4(=O)=O)CC3)c(=O)oc2c1 |  |
| 5.20 | 5.31 | 5.49 | 5.37 | CCN(CC)c1ccc2cc(C(=O)N3CCN(C(=O)C4=Cc5ccc(F)cc5S4(=O)=O)CC3)c(=O)oc2c1 |  |
| 5.36 | 5.26 | 5.63 | 5.39 | CCN(CC)c1ccc2cc(C(=O)N3CCN(C(=O)C4=Cc5cc(Cl)ccc5S4(=O)=O)CC3)c(=O)oc2c1 |  |
| 5.36 | 5.31 | 5.46 | 5.49 | CCN(CC)c1ccc2cc(C(=O)N3CCN(C(=O)C4=Cc5c([N+](=O)[O-])cccc5S4(=O)=O)CC3)c(=O)oc2c1 |  |
| 4.82 | 4.64 | 4.56 | 5.03 | O=S1(=O)C=Cc2ccccc21 |  |
| 5.35 | 5.35 | 5.65 | 5.80 | CCN(CC)c1ccc2cc(C(=O)N3CCN(C(=O)C4=Cc5c(Cl)cccc5S4(=O)=O)CC3)c(=O)oc2c1 |  |
| 5.52 | 5.37 | 5.63 | 5.42 | CCN(CC)c1ccc2cc(C(=O)N3CCN(C(=O)C4=Cc5ccccc5S4(=O)=O)CC3)c(=O)oc2c1 |  |
| 5.40 | 5.53 | 5.74 | 5.69 | CCN(CC)c1ccc2cc(C(=O)N3CCN(C(=O)C4=Cc5c(OC)cccc5S4(=O)=O)CC3)c(=O)oc2c1 |  |
| 5.43 | 5.45 | 5.74 | 5.67 | O=[N+]([O-])c1ccc2c(c1)S(=O)(=O)C=C2 | inhibition [2]: Active; inhibition [3]: inactive; pIC50 (L02): 5.28; inhibition [4]: Active; Activity (MDA-MB-231 [5]): Active; Activity (MDA-MB-231 [6]): Active; selectivity ratio [7]: 3.4; inhibition [8]: inactive; selectivity ratio [9]: 1.5; inhibition [10]: inactive; pIC50 (MCF-10A): 5.21; Activity (MDA-MB-231 [11]): Active; inhibition [12]: inactive |
| 5.39 | 5.48 | 5.67 | 5.63 | CCN(CC)c1ccc2cc(C(=O)N3CCN(C(=O)C4=Cc5c(F)cccc5S4(=O)=O)CC3)c(=O)oc2c1 |  |
| 5.64 | 5.38 | 5.72 | 5.64 | CCN(CC)c1ccc2cc(C(=O)N3CCN(C(=O)C4=Cc5ccc(OC)cc5S4(=O)=O)CC3)c(=O)oc2c1 |  |
| 5.17 | 5.15 | 5.28 | 5.31 | CCN(CC)c1ccc2cc(C(=O)N3CCN(C(=O)C4=Cc5ccc([N+](=O)[O-])cc5S4(=O)=O)CC3)c(=O)oc2c1 |  |
| 5.28 | 5.28 | 5.69 | 5.35 | CCN(CC)c1ccc2cc(C(=O)N3CCN(C(=O)C4=Cc5ccc(Cl)cc5S4(=O)=O)CC3)c(=O)oc2c1 |  |
| 5.41 | 5.29 | 5.65 | 5.42 | CCN(CC)c1ccc2cc(C(=O)N3CCN(C(=O)C4=Cc5cc(Br)ccc5S4(=O)=O)CC3)c(=O)oc2c1 |  |
